Measured values: the supplement of paper PMC11451515

Assays:
Conditions in all cases: 48 h
NOMO1 [1] = assay: cell viability relative to DMSO control; higher = less cytotoxic
In short: (§1)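 In 1536-well plates, 5 μl of leukemia cells were seeded per well: 500 cells/well for NOMO1 or SEM and 1000 cells/well for P12-Ichikawa. Each line had first been adapted for at least four passages in each medium. Library compounds in DMSO were pin-dosed at 11 threefold concentrations between 47 μM and 0.79 nM, and CellTiter-Glo One luminescence was read after 48 h at 37°C. Viability is a per-plate percentage relative to DMSO wells, with cell-free wells as background.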

P12-Ichikawa [2] = assay: as above
In short: as §1

SEM cells [3] = assay: as above
In short: as §1

NOMO1 [4] = assay: AUC of viability dose-response curve (% viability x log10 dose units); higher = less sensitive
In short: (§2)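 Area under the curve was integrated by trapezoidal rule from a log-logistic fit of normalised viability, with curves exceeding full viability scaled and quality-control failures removed. The fit had four parameters over log10 doses. Viability came from CellTiter-Glo One luminescence, normalised per plate to DMSO and cell-free wells, after leukemia cells adapted to each medium (500 or 1000 cells/well, 1536-well plates) were exposed to library compounds in DMSO for 48 h at 37°C. The 11 threefold doses ran from 47 μM to 0.79 nM.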

P12-Ichikawa [5] = assay: as above
In short: as §2

SEM cells [6] = assay: as above
In short: as §2

Clc1ccc(COC(Cn2ccnc2)c2ccc(Cl)cc2Cl)cc1 (stereo unspecified)
cell viability [%]
Conditions	NOMO1 [1]	P12-Ichikawa [2]	SEM cells [3]
HPLM + 10% dialyzed FBS, 0.000781 µM	118	110	72.9
HPLM + 10% dialyzed FBS, 0.00234 µM	119	109	82.3
HPLM + 10% dialyzed FBS, 0.00702 µM	105	115	89.9
HPLM + 10% dialyzed FBS, 0.0211 µM	115	117	97.2
HPLM + 10% dialyzed FBS, 0.0632 µM	111	124	83.6
HPLM + 10% dialyzed FBS, 0.19 µM	104	121	84.7
HPLM + 10% dialyzed FBS, 0.569 µM	111	120	80.8
HPLM + 10% dialyzed FBS, 1.71 µM	127	117	88.9
HPLM + 10% dialyzed FBS, 5.12 µM	132	114	92.5
HPLM + 10% dialyzed FBS, 15.4 µM	118	116	87.9
HPLM + 10% dialyzed FBS, 46.1 µM	93.2	106	80.5
RPMI 5 mM glucose + 10% FBS, 0.000781 µM	107	116	116
RPMI 5 mM glucose + 10% FBS, 0.00234 µM	104	117	110
RPMI 5 mM glucose + 10% FBS, 0.00702 µM	110	114	121
RPMI 5 mM glucose + 10% FBS, 0.0211 µM	123	126	114
RPMI 5 mM glucose + 10% FBS, 0.0632 µM	111	129	119
RPMI 5 mM glucose + 10% FBS, 0.19 µM	109	123	102
RPMI 5 mM glucose + 10% FBS, 0.569 µM	121	121	119
RPMI 5 mM glucose + 10% FBS, 1.71 µM	117	130	107
RPMI 5 mM glucose + 10% FBS, 5.12 µM	119	126	113
RPMI 5 mM glucose + 10% FBS, 15.4 µM	110	104	107
RPMI 5 mM glucose + 10% FBS, 46.1 µM	102	91.3	82
RPMI 5 mM glucose + 10% dialyzed FBS, 0.000781 µM	114	108	76.8
RPMI 5 mM glucose + 10% dialyzed FBS, 0.00234 µM	112	114	78.8
RPMI 5 mM glucose + 10% dialyzed FBS, 0.00702 µM	103	123	113
RPMI 5 mM glucose + 10% dialyzed FBS, 0.0211 µM	121	113	85
RPMI 5 mM glucose + 10% dialyzed FBS, 0.0632 µM	115	124	92.2
RPMI 5 mM glucose + 10% dialyzed FBS, 0.19 µM	125	124	88.7
RPMI 5 mM glucose + 10% dialyzed FBS, 0.569 µM	121	120	111
RPMI 5 mM glucose + 10% dialyzed FBS, 1.71 µM	120	107	94.2
RPMI 5 mM glucose + 10% dialyzed FBS, 5.12 µM	114	103	101
RPMI 5 mM glucose + 10% dialyzed FBS, 15.4 µM	121	96.8	79.7
RPMI 5 mM glucose + 10% dialyzed FBS, 46.1 µM	83.6	85.7	74.5

AUC of viability dose-response curve
Conditions	NOMO1 [4]	P12-Ichikawa [5]	SEM cells [6]
HPLM + 10% dialyzed FBS	473	477	408
RPMI 5 mM glucose + 10% FBS	473	463	468
RPMI 5 mM glucose + 10% dialyzed FBS	470	452	431

CC1=CC2=C(O1)C(=C3OC(=O)\C=C(C)/C3=C2)C
cell viability [%]
Conditions	NOMO1 [1]	P12-Ichikawa [2]	SEM cells [3]
HPLM + 10% dialyzed FBS, 0.000781 µM	79.8	105	70.2
HPLM + 10% dialyzed FBS, 0.00234 µM	98.7	116	81.2
HPLM + 10% dialyzed FBS, 0.00702 µM	90.9	113	86.8
HPLM + 10% dialyzed FBS, 0.0211 µM	114	109	88.7
HPLM + 10% dialyzed FBS, 0.0632 µM	104	113	84
HPLM + 10% dialyzed FBS, 0.19 µM	123	111	84.5
HPLM + 10% dialyzed FBS, 0.569 µM	125	117	83.8
HPLM + 10% dialyzed FBS, 1.71 µM	121	111	92.5
HPLM + 10% dialyzed FBS, 5.12 µM	95.2	108	90.6
HPLM + 10% dialyzed FBS, 15.4 µM	124	102	88.9
HPLM + 10% dialyzed FBS, 46.1 µM	116	99.6	74.1
RPMI 5 mM glucose + 10% FBS, 0.000781 µM	114	89.6	72
RPMI 5 mM glucose + 10% FBS, 0.00234 µM	102	107	91.5
RPMI 5 mM glucose + 10% FBS, 0.00702 µM	112	105	93.7
RPMI 5 mM glucose + 10% FBS, 0.0211 µM	115	106	96.8
RPMI 5 mM glucose + 10% FBS, 0.0632 µM	125	103	86.7
RPMI 5 mM glucose + 10% FBS, 0.19 µM	108	107	103
RPMI 5 mM glucose + 10% FBS, 0.569 µM	114	118	98.3
RPMI 5 mM glucose + 10% FBS, 1.71 µM	102	106	103
RPMI 5 mM glucose + 10% FBS, 5.12 µM	113	107	105
RPMI 5 mM glucose + 10% FBS, 15.4 µM	106	102	92.2
RPMI 5 mM glucose + 10% FBS, 46.1 µM	106	96.8	91
RPMI 5 mM glucose + 10% dialyzed FBS, 0.000781 µM	91.2	102	89
RPMI 5 mM glucose + 10% dialyzed FBS, 0.00234 µM	92.2	112	100
RPMI 5 mM glucose + 10% dialyzed FBS, 0.00702 µM	99.8	110	94.8
RPMI 5 mM glucose + 10% dialyzed FBS, 0.0211 µM	102	111	102
RPMI 5 mM glucose + 10% dialyzed FBS, 0.0632 µM	107	113	93.4
RPMI 5 mM glucose + 10% dialyzed FBS, 0.19 µM	98	115	107
RPMI 5 mM glucose + 10% dialyzed FBS, 0.569 µM	112	110	109
RPMI 5 mM glucose + 10% dialyzed FBS, 1.71 µM	105	115	104
RPMI 5 mM glucose + 10% dialyzed FBS, 5.12 µM	114	104	121
RPMI 5 mM glucose + 10% dialyzed FBS, 15.4 µM	102	105	111
RPMI 5 mM glucose + 10% dialyzed FBS, 46.1 µM	114	86.8	105

AUC of viability dose-response curve
Conditions	NOMO1 [4]	P12-Ichikawa [5]	SEM cells [6]
HPLM + 10% dialyzed FBS	446	468	404
RPMI 5 mM glucose + 10% FBS	466	469	453
RPMI 5 mM glucose + 10% dialyzed FBS	451	468	447
